Counter-ions that a name gives are not always drawn.
Legend:
JAK2 tyrosine kinase = target: T1, JAK2 tyrosine kinase (Homo sapiens, UniProt O60674); experiment: Test 1: inhibitory activity to JAK2 tyrosine kinase (ELISA); assay type: biochemical; conditions: 25 μM ATP in substrate solution, 30° C. for 1 hour, n=2
T1 construct: purchased Carnabioscience Co
Summary of the method: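 Human JAK2 (diluted to 0.75 nM before addition) phosphorylated a biotinylated peptide on streptavidin plates for 1 h at 30 °C. The substrate mix held 625 nM peptide, 25 μM ATP and 25 mM MgCl2 in 15 mM Tris pH 7.5, 0.01% Tween-20 and 1 mM DTT. Phosphotyrosine was detected by HRP antibody/TMB at 450 nm, and IC50 was obtained by non-linear regression; duplicates were run.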

JAK3 tyrosine kinase = target: T2, JAK3 tyrosine kinase (Homo sapiens, UniProt P52333); experiment: Test 1: inhibitory activity to JAK3 tyrosine kinase (ELISA); assay type: biochemical; conditions: 25 μM ATP in substrate solution, 30° C. for 1 hour, n=2
T2 construct: purchased Carnabioscience Co
T2 sequence (P52333 1-1124): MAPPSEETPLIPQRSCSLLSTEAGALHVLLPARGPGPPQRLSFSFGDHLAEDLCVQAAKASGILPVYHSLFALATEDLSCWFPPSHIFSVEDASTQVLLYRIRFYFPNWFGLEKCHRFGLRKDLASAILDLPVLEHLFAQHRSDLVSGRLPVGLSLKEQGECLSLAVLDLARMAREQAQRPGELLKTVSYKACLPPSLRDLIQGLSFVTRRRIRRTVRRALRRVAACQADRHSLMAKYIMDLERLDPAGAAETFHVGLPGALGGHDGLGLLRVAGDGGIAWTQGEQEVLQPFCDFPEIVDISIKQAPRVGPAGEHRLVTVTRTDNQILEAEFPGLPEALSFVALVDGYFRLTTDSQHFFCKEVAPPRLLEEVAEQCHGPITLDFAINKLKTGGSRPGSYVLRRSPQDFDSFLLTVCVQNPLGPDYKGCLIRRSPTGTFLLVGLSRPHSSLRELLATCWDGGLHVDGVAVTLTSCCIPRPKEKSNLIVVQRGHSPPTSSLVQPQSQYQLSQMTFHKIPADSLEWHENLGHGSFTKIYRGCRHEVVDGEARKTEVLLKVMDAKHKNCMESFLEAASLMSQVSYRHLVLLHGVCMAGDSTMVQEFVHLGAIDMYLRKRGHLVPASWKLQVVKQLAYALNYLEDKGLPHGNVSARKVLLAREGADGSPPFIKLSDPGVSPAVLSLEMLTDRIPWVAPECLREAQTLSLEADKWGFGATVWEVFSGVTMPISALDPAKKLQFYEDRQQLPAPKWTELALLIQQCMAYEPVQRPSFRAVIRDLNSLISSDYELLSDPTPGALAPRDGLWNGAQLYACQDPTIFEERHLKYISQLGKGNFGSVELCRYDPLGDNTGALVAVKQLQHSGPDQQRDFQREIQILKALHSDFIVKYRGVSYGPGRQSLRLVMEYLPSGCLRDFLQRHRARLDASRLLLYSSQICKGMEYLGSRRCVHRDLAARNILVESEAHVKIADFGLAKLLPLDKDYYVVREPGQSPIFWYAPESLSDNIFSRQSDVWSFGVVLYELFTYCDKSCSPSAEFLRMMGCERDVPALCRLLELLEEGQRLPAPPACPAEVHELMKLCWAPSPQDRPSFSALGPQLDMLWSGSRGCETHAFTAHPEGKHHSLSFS
Summary of the method: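 ELISA of JAK3 kinase activity with absorbance read at 450 nm. Compounds were tested from DMSO dilution series at 100-fold the measurement concentrations (1000–0.01 μM), diluted up to 20 times in assay buffer, against a DMSO negative control. IC50 was estimated by non-linear regression of absorbance.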

T1 sequence (O60674 whole entry): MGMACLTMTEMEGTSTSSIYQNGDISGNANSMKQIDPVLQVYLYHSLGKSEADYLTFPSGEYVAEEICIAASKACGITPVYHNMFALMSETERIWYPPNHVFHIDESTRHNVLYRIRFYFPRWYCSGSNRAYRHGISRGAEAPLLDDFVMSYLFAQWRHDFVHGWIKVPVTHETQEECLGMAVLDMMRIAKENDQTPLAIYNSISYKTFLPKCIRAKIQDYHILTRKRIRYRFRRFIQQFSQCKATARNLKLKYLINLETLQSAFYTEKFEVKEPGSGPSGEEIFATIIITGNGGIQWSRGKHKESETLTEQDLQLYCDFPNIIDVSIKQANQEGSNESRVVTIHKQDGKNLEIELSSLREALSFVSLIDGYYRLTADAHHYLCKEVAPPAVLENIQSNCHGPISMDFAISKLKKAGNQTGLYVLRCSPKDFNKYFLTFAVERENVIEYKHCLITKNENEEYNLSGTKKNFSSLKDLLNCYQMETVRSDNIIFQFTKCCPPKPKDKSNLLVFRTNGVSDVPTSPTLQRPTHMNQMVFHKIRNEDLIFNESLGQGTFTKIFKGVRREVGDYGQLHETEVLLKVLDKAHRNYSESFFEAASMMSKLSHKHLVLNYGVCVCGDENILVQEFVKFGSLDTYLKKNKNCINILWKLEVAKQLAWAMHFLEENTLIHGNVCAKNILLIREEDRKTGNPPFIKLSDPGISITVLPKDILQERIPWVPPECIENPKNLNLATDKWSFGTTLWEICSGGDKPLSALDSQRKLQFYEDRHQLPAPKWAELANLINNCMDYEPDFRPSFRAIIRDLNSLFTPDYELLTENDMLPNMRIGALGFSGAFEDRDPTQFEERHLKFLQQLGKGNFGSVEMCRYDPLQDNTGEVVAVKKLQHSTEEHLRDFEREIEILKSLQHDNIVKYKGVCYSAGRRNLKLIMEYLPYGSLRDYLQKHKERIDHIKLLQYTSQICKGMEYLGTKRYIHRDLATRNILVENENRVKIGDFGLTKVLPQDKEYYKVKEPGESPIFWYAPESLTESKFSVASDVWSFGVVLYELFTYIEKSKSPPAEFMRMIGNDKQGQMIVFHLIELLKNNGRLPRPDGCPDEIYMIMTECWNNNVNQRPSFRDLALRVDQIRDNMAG

Structure (SMILES)	IC50 (JAK2 tyrosine kinase)	IC50 (JAK3 tyrosine kinase)
C[C@H](Nc1nc(Nc2cnccn2)cc(N2C[C@H](O)CC2=O)n1)c1ccc(F)cc1 [Example 67, (R)-1-{2-[(S)-1-(4-Fluorophenyl)ethylamino]-6-(pyrazin-2-ylamino)pyrimidin-4-yl}-4-hydroxypyrrolidin-2-one]	11 nM	470 nM
C[C@H](Nc1cc(NS(C)(=O)=O)cc(Nc2cnccn2)n1)c1ccc(F)cc1 [Example 209, (S)—N-{2-[1-(4-Fluorophenyl)ethylamino]-6-(pyrazin-2-ylamino)pyridin-4-yl}methanesulfonamide hydrochloride]	7.1 nM	440 nM
C[C@H](Nc1nc(Nc2cnccn2)ccc1C(N)=O)c1ccc(F)cc1 [Example 187, (S)-2-[1-(4-Fluorophenyl)ethylamino]-6-(pyrazin-2-ylamino) nicotinamide]	2.4 nM	400 nM
C[C@H](Nc1nc(Nc2cnccn2)cc(-c2cccc(C#N)c2)n1)c1ccc(F)cc1 [Example 81, (S)-3-{2-[1-(4-Fluorophenyl)ethylamino]-6-(pyrazin-2-ylamino)pyrimidin-4-yl}benzonitrile]	5.6 nM	480 nM
C[C@H](Nc1cc(N2CC(N3CCC(O)CC3)C2)cc(Nc2cnccn2)n1)c1ccc(F)cc1 [Example 234, (S)-1-(1-{2-[1-(4-Fluorophenyl)ethylamino]-6-(pyrazin-2-ylamino)pyridin-4-yl}azetidin-3-yl)piperidin-4-ol]	5.4 nM	170 nM
C[C@H](Nc1nc(Nc2cnccn2)cc(N2CCC2=O)n1)c1ccc(F)cc1 [Example 45, (S)-1-{2-[1-(4-Fluorophenyl)ethylamino]-6-(pyrazin-2-ylamino)pyrimidin-4-yl}azetidin-2-one]	9 nM	2300 nM
COC1(C2CC2)CN(c2cc(Nc3cnccn3)nc(N[C@@H](C)c3ccc(F)cc3)c2)C1 [Example 211, (S)-4-(3-Cyclopropyl-3-methoxyazetidin-1-yl)-N^2-[1-(4-fluorophenyl)ethyl]-N^6-(pyrazin-2-yl)pyridine-2,6-diamine hydrochloride]	5.6 nM	86 nM
C[C@H](Nc1nc(Nc2cnccn2)cc(N[C@@H](CO)C(N)=O)n1)c1ccc(F)cc1 [Example 109, (S)-2-{2-[(S)-1-(4-Fluorophenyl)ethylamino]-6-(pyrazin-2-ylamino)pyrimidin-4-ylamino}-3-hydroxypropanamide]	2.4 nM	130 nM
C[C@H](Nc1nc(Nc2cnccn2)cc(N2CCCC2=O)n1)c1ccc(F)cc1 [Example 16, (S)-1-{2-[1-(4-Fluorophenyl)ethylamino]-6-(pyrazin-2-ylamino)pyrimidin-4-yl}pyrrolidin-2-one]	8 nM	630 nM
C[C@H](Nc1nc(NCC(N)=O)cc(Nc2cnccn2)n1)c1ccc(F)cc1 [Example 79, (S)-2-{2-[1-(4-Fluorophenyl)ethylamino]-6-(pyrazin-2-ylamino)pyrimidin-4-ylamino}acetamide hydrochloride]	4.3 nM	140 nM
C[C@H](Nc1cc(-c2cc[nH]n2)cc(Nc2cnccn2)n1)c1ccc(F)cc1 [Example 29, (S)—N^2-[1-(4-Fluorophenyl)ethyl]-N^6-(pyrazin-2-yl)-4-(1H-pyrazol-3-yl)pyridine-2,6-diamine]	2 nM	160 nM
C[C@H](Nc1cc(NC(N)=O)cc(Nc2cnccn2)n1)c1ccc(F)cc1 [Example 210, (S)-1-[2-[1-(4-Fluorophenyl)ethylamino]-6-(pyrazin-2-ylamino)pyridin-4-yl]urea]	3.2 nM	180 nM
C[C@H](Nc1nc(Nc2cnccn2)ccc1C(=O)N1CCOCC1)c1ccc(F)cc1 [Example 188, (S)-{2-[1-(4-Fluorophenyl)ethylamino]-6-(pyrazin-2-ylamino)pyridin-3-yl}(morpholino)methanone dihydrochloride]	3.7 nM	120 nM
C[C@H](Nc1nc(Nc2cnccn2)cc(-c2ccc(C#N)nc2)n1)c1ccc(F)cc1 [Example 55, (S)-5-{2-[1-(4-Fluorophenyl)ethylamino]-6-(pyrazin-2-ylamino)pyrimidin-4-yl}picolinonitrile]	2 nM	190 nM
C[C@H](Nc1cccc(Nc2cnccn2)n1)c1ccc(F)cc1 [Example 117, (S)—N^2-[1-(4-Fluorophenyl)ethyl]-N^6-(pyrazin-2-yl)pyridine-2,6-diamine dihydrochloride]	2.7 nM	190 nM
COC1CN(c2cc(Nc3cnccn3)nc(N[C@@H](C)c3ccc(F)cc3)n2)C1 [Example 183, (S)—N^2-[1-(4-Fluorophenyl)ethyl]-6-(3-methoxyazetidin-1-yl)-N^4-(pyrazin-2-yl)pyrimidine-2,4-diamine hydrochloride]	1.8 nM	59 nM
C[C@H](Nc1cc(N2CCSCC2)cc(Nc2cnccn2)n1)c1ccc(F)cc1 [Example 40, (S)—N^2-[1-(4-Fluorophenyl)ethyl]-N^6-(pyrazin-2-yl)-4-thiomorpholinopyridine-2,6-diamine]	3.4 nM	310 nM

Stronger by IC50 (JAK2 tyrosine kinase), values ahead:

IC50 (JAK2 tyrosine kinase)	IC50 (JAK3 tyrosine kinase)	Structure (SMILES)
1.3 nM	82 nM	C[C@H](Nc1nc(Nc2cnccn2)cc(-c2ccc(C(N)=O)nc2)n1)c1ccc(F)cc1 [Example 57, (S)-5-{2-[1-(4-Fluorophenyl)ethylamino]-6-(pyrazin-2-ylamino)pyrimidin-4-yl}picolinamide]
1.6 nM	64 nM	C[C@H](Nc1nc(Nc2cnccn2)cc(N2CC(C(=O)NCCO)C2)n1)c1ccc(F)cc1 [Example 199, (S)-1-{2-[1-(4-Fluorophenyl)ethylamino]-6-(pyrazin-2-ylamino)pyrimidin-4-yl}-N-(2-hydroxyethyl)azetidine-3-carboxamide]
1.7 nM	77 nM	C[C@H](Nc1nc(Nc2cnccn2)cc(OCC2CCCO2)n1)c1ccc(F)cc1 (stereo partly drawn) [Example 94, N^2-[(S)-1-(4-Fluorophenyl)ethyl]-N^4-(pyrazin-2-yl)-6-[(tetra hydrofuran-2-yl)methoxy]pyrimidine-2,4-diamine]
1.5 nM	65 nM	C[C@H](Nc1nc(Nc2cnccn2)cc(N2CCC[C@@H]2CO)n1)c1ccc(F)cc1 [Example 70, ((R)-1-{2-[(S)-1-(4-Fluorophenyl)ethylamino]-6-(pyrazin-2-ylamino)pyrimidin-4-yl}pyrrolidin-2-yl)methanol hydrochloride]
0.5 nM	68 nM	C[C@H](Nc1nc(Nc2cnccn2)cc(-c2cccnc2)n1)c1ccc(F)cc1 [Example 32, (S)—N^2-[1-(4-Fluorophenyl)ethyl]-N^4-(pyrazin-2-yl)-6-(pyridin-3-yl)pyrimidine-2,4-diamine ½ maleate]
1 nM	82 nM	C[C@H](Nc1nc(Nc2cnccn2)cc(N2CC(C#N)C2)n1)c1ccc(F)cc1 [Example 178, (S)-1-{2-[1-(4-Fluorophenyl)ethylamino]-6-(pyrazin-2-ylamino)pyrimidin-4-yl}azetidine-3-carbonitrile]
1.3 nM	72 nM	C[C@H](Nc1nc(Nc2cnccn2)cc(-c2ccncc2)n1)c1ccc(F)cc1 [Example 15, (S)—N^2-[1-(4-Fluorophenyl)ethyl]-N^4-(pyrazin-2-yl)-6-(pyridin-4-yl)pyrimidine-2,4-diamine]
1.1 nM	53 nM	C[C@H](Nc1nc(Nc2cnccn2)cc(-c2cc[nH]n2)n1)c1ccc(F)cc1 [Example 24, (S)—N^2-[1-(4-Fluorophenyl)ethyl]-N^4-(pyrazin-2-yl)-6-(1H-pyrazol-3-yl)pyrimidine-2,4-diamine hydrochloride]
1.2 nM	130 nM	C[C@H](Nc1nc(Nc2cnccn2)cc(N2CC(F)(F)C2)n1)c1ccc(F)cc1 [Example 3, (S)-6-(3,3-Difluoroazetidin-1-yl)-N^2-[1-(4-fluorophenyl)ethyl]-N^4-(pyrazin-2-yl)pyrimidine-2,4-diamine hydrochloride]
